22 compounds from US10696693B2, “Fused imidazole derivatives as TGF-beta inhibitors” (Rigel Pharmaceuticals, Inc., priority 2014, dated 2020) can be followed below.

One assay relates to GDF8. Briefly: AlphaScreen SureFire p-SMAD3 (Ser423/425) assay, GDF8-stimulated cells. In kind it is cell-based. The settings on record: Mus musculus. The gist of the method:
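A SureFire AlphaScreen assay measured phosphorylation of endogenous SMAD-3 at Ser423/425 in cell lysates. Cells were treated with three-fold serially diluted compounds in DMSO for about 10 minutes, then stimulated with GDF8. After medium removal, cells were lysed in 1× Lysis Buffer (about 25 μL) with gentle shaking for 5-10 minutes.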

The subject of another assay is TGF-β. Briefly: AlphaScreen SureFire p-SMAD3 (Ser423/425) assay, TGF-β-stimulated cells. In kind it is cell-based. The settings on record: Mus musculus. The gist of the method: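 The p-SMAD-3 (Ser423/425) SureFire assay measured phosphorylation of endogenous SMAD-3 in cell lysates. Cells were plated overnight in collagen-coated plates, exposed to three-fold serially diluted compounds for about 10 minutes, then stimulated with TGFβ. Lysates (5 μL) received acceptor bead mix for 2 hours, then donor beads for 1½ hours before AlphaScreen reading.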

The mark [1] stands for this setting: MPC-11, p-SMAD3 (Ser423/425) AlphaScreen in cell lysate, MPC11, GDF8 stimulation, read-out: GDF8: inhibition of GDF8 signaling, GDF pSMAD (MPC11).
Setting [2] is: p-SMAD3 (Ser423/425) AlphaScreen in cell lysate, MPC-11, TGF-β stimulation, read-out: TGF-β: inhibition of TGF-β signaling, TGF-β pSMAD (MPC-11).
Setting [3] is: MPC-11, read-out: GDF8: inhibition of GDF8 signaling, GDF pSMAD (MPC11), p-SMAD3 (Ser423/425) AlphaScreen in cell lysate, GDF8 stimulation.
[4] abbreviates: MPC-11, read-out: TGF-β: inhibition of TGF-β signaling, TGF-β pSMAD (MPC-11), p-SMAD3 (Ser423/425) AlphaScreen in cell lysate, TGF-β stimulation.

Where two headings read alike, the source gives them in different places. A value given as a limit tells only on which side of the number the result lay.

As to `Clc1ccc(Cl)c(-c2nc3n(c2-c2ccc4nccnc4c2)CCC3)c1` [Compound 348, 6-(2-(2,5-dichloropheny)-6,7-dihydro-5H-pyrrolo[1,2-a]imidazol-3-yl)quinoxaline], the IC50 is below 50 nM in the assay on GDF8 (setting [1]) and 50 to 100 nM with TGF-β (setting [2]).
In the case of `Clc1ccc(Cl)c(-c2nc3n(c2-c2ccc4ncsc4c2)CCC3)c1` [Compound 349, 6-(2-(2,5-dichlorophenyl)-6,7-dihydro-5H-pyrrolo[1,2-a]imidazol-3-yl)benzo[d]thiazole], the IC50 is below 50 nM in the assay on GDF8 (setting [3]) and 50 to 100 nM in the assay on TGF-β (setting [4]).
The corresponding values for `Cc1ccc(Cl)cc1-c1nc2n(c1-c1ccc3ncsc3c1)CCC2` [Compound 350, 6-(2-(5-chloro-2-methylphenyl)-6,7-dihydro-5H-pyrrolo[1,2-a]imidazol-3-yl)benzo[d]thiazole] are 50 to 100 nM and 100 to 1000 nM.
The corresponding values for `COc1ccc(-c2nc3n(c2-c2ccc4nccnc4c2)CCC3)cc1` [Compound 351, 6-(2-(4-methoxyphenyl)-6,7-dihydro-5H-pyrrolo[1,2-a]imidazol-3-yl)quinoxaline] are above 1000 nM and above 1000 nM.
The corresponding values for `COc1ccc(-c2nc3n(c2-c2ccc4ncccc4c2)CCC3)cc1` [Compound 352, 6-(2-(4-methoxyphenyl)-6,7-dihydro-5H-pyrrolo[1,2-a]imidazol-3-yl)quinoline] are above 1000 nM and above 1000 nM.
With `COCCOc1cnc2ccc(-c3c(-c4cc(F)c(F)cc4F)nc4n3CCC4)cc2n1` [Compound 353, 2-(2-methoxyethoxy)-7-(2-(2,4,5-trifluorophenyl)-6,7-dihydro-5H-pyrrolo[1,2-a]imidazol-3-yl)quinoxaline], the IC50 with GDF8 (setting [1]) and in the assay with TGF-β (setting [2]) was 100 to 1000 nM in each case.
`COCCOc1cnc2ccc(-c3c(-c4cc(Cl)ccc4F)nc4n3CCC4)cc2n1` [Compound 354, 7-(2-(5-chloro-2-fluorophenyl)-6,7-dihydro-5H-pyrrolo[1,2-a]imidazol-3-yl)-2-(2-methoxyethoxy)quinoxaline]: the IC50 was 50 to 100 nM in the assay on GDF8 (setting [3]) and below 50 nM with TGF-β (setting [4]).
As for `COCCOc1cnc2ccc(-c3c(-c4ccc(F)c(Cl)c4)nc4n3CCC4)cc2n1` [Compound 355, 7-(2-(3-chloro-4-fluorophenyl)-6,7-dihydro-5H-pyrrolo[1,2-a]imidazol-3-yl)-2-(2-methoxyethoxy)quinoxaline], the IC50 in the assay on GDF8 (setting [3]) and in the assay with TGF-β (setting [4]) was 100 to 1000 nM in each case.
As for `Cc1ccc(F)c(-c2nc3n(c2-c2ccc4ncccc4c2)CCC3)c1` [Compound 356, 6-(2-(2-fluoro-5-methylphenyl)-6,7-dihydro-5H-pyrrolo[1,2-a]imidazol-3-yl)quinoline], the IC50 in the assay on GDF8 (setting [1]) was in the range of 50 to 100 nM; in the assay with TGF-β (setting [2]), 100 to 1000 nM.
The corresponding values for `Cc1ccc(F)c(-c2nc3n(c2-c2ccc4nccnc4c2)CCC3)c1` [Compound 357, 6-(2-(2-fluoro-5-methylphenyl)-6,7-dihydro-5H-pyrrolo[1,2-a]imidazol-3-yl)quinoxaline] are below 50 nM and below 50 nM.
For the compound `COCCOc1cnc2ccc(-c3c(-c4cc(C)ccc4F)nc4n3CCC4)cc2n1` [Compound 358, 7-(2-(2-fluoro-5-methylphenyl)-6,7-dihydro-5H-pyrrolo[1,2-a]imidazol-3-yl)-2-(2-methoxyethoxy)quinoxaline], the IC50 in the assay on GDF8 (setting [3]) and in the assay with TGF-β (setting [4]) was 100 to 1000 nM in each case.
Regarding `Fc1cc(F)c(F)c(-c2nc3n(c2-c2ccc4ncc(-n5ccnc5)nc4c2)CCC3)c1` [Compound 359, 2-(1H-imidazol-1-yl)-7-(2-(2,3,5-trifluorophenyl)-6,7-dihydro-5H-pyrrolo[1,2-a]imidazol-3-yl)quinoxaline], the values for the IC50 in the assay on GDF8 (setting [3]) and in the assay with TGF-β (setting [4]) were 50 to 100 nM and 100 to 1000 nM, respectively.
The corresponding values for `Fc1ccc(Cl)cc1-c1nc2n(c1-c1ccc3ncc(-n4ccnc4)nc3c1)CCC2` [Compound 360, 7-(2-(5-chloro-2-fluorophenyl)-6,7-dihydro-5H-pyrrolo[1,2-a]imidazol-3-yl)-2-(1H-imidazol-1-yl)quinoxaline] are below 50 nM and below 50 nM.
The corresponding values for `CN(C)CCOc1cnc2ccc(-c3c(-c4cc(F)cc(F)c4F)nc4n3CCC4)cc2n1` [Compound 361, N,N-dimethyl-2-((7-(2-(2,3,5-trifluorophenyl)-6,7-dihydro-5H-pyrrolo[1,2-a]imidazol-3-yl)quinoxalin-2-yl)oxy)ethan-1-amine] are above 1000 nM and above 1000 nM.
Regarding `CN(C)CCOc1cnc2ccc(-c3c(-c4cc(F)c(F)cc4F)nc4n3CCC4)cc2n1` [Compound 362, N,N-dimethyl-2-((7-(2-(2,4,5-trifluorophenyl)-6,7-dihydro-5H-pyrrolo[1,2-a]imidazol-3-yl)quinoxalin-2-yl)oxy)ethan-1-amine], the IC50 with GDF8 (setting [3]) and with TGF-β (setting [4]) was 100 to 1000 nM throughout.
For `CN(C)CCOc1cnc2ccc(-c3c(-c4cc(Cl)ccc4F)nc4n3CCC4)cc2n1` [Compound 363, 2-((7-(2-(5-chloro-2-fluorophenyl)-6,7-dihydro-5H-pyrrolo[1,2-a]imidazol-3-yl)quinoxalin-2-yl)oxy)-N,N-dimethylethan-1-amine], the IC50 in the assay on GDF8 (setting [1]) and with TGF-β (setting [2]) was below 50 nM in each case.
`c1ccc(C2=C(c3ccc4[nH]ncc4c3)C3CCCC3=N2)nc1` (centres unmarked) [Compound 365, 5-(2-(pyridin-2-yl)-3a,4,5,6-tetrahydrocyclopenta[b]pyrrol-3-yl)-1H-indazole]: the IC50 in the assay with GDF8 (setting [1]) and in the assay with TGF-β (setting [2]) was below 50 nM throughout.
Take `c1ccc(C2=C(c3ccc4cn[nH]c4c3)C3CCCC3=N2)nc1` (centres unmarked) [Compound 366, 6-(2-(pyridin-2-yl)-3a,4,5,6-tetrahydrocyclopenta[b]pyrrol-3-yl)-1H-indazole]: the IC50 was below 50 nM in the assay on GDF8 (setting [1]) and 50 to 100 nM in the assay on TGF-β (setting [2]).
The corresponding values for `c1ccc(-c2nc3n(c2-c2ccc4ncsc4c2)CCC3)nc1` [Compound 367, 6-(2-(pyridin-2-yl)-6,7-dihydro-5H-pyrrolo[1,2-a]imidazol-3-yl)benzo[d]thiazole] are below 50 nM and below 50 nM.
The corresponding values for `c1ccc(-c2nc3n(c2-c2ccc4nccnc4c2)CCC3)nc1` [Compound 368, 6-(2-(pyridin-2-yl)-6,7-dihydro-5H-pyrrolo[1,2-a]imidazol-3-yl)quinoxaline] are 50 to 100 nM and 50 to 100 nM.
For `c1ccc(-c2nc3n(c2-c2ccc4ncccc4c2)CCC3)nc1` [Compound 369, 6-(2-(pyridin-2-yl)-6,7-dihydro-5H-pyrrolo[1,2-a]imidazol-3-yl)quinoline], the IC50 is below 50 nM in the assay with GDF8 (setting [1]) and 50 to 100 nM in the assay on TGF-β (setting [2]).
The corresponding values for `c1ccc(-c2nc3n(c2-c2ccc4nccn4c2)CCC3)nc1` [Compound 370, 6-(2-(pyridin-2-yl)-6,7-dihydro-5H-pyrrolo[1,2-a]imidazol-3-yl)imidazo[1,2-a]pyridine] are below 50 nM and below 50 nM.
